# Reference: patent US20150353495A1 (PORTOLA PHARMACEUTICALS, INC., priority 2010, published 2015)
# How the values were obtained:
# Assay type in all cases: biochemical
# JAK2 = biological target: T1, JAK2 (Homo sapiens, UniProt O60674); assay: Z'-LYTE kinase assay JAK2
# T1 construct: 5 μl of catalytic domain recombinant Kinase enzyme+Tyr peptide substrate (Invitrogen, CA); purchased Invitrogen
# Procedure, shortened: (§1)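 In duplicate wells, each test molecule (1% final DMSO) is incubated with recombinant kinase catalytic domain, Tyr6 peptide substrate and ATP for one hour at room temperature; a site-specific protease is then added for another hour before fluorescence reading.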
# JAK3 = biological target: T2, JAK3 (Homo sapiens, UniProt P52333); assay: Z'-LYTE kinase assay JAK3
# T2 construct: 5 μl of catalytic domain recombinant Kinase enzyme+Tyr peptide substrate (Invitrogen, CA); purchased Invitrogen
# T2 sequence (P52333 822-1111 limits assumed): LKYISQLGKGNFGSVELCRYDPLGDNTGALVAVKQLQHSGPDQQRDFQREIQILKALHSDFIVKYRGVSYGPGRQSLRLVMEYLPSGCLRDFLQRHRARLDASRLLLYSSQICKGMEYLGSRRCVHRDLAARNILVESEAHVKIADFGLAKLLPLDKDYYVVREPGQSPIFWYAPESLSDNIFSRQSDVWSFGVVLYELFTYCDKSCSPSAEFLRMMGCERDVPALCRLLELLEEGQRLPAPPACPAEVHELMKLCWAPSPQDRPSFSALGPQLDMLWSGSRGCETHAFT
# Procedure, shortened: as §1
# JAK1 = biological target: T3, JAK1 (Homo sapiens, UniProt P23458); assay: Z'-LYTE kinase assay JAK1
# T3 construct: 5 μl of catalytic domain recombinant Kinase enzyme+Tyr peptide substrate (Invitrogen, CA); purchased Invitrogen
# T3 sequence (P23458 875-1153 limits assumed): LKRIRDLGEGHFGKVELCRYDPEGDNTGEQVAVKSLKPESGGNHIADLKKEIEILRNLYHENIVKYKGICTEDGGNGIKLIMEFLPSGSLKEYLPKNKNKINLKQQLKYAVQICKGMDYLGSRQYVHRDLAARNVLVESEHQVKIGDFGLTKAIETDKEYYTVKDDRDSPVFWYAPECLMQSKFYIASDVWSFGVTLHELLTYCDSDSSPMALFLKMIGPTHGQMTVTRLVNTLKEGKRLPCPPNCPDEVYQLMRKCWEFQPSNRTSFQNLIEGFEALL
# Procedure, shortened: as §1
# T1 sequence (O60674 849-1124 limits assumed): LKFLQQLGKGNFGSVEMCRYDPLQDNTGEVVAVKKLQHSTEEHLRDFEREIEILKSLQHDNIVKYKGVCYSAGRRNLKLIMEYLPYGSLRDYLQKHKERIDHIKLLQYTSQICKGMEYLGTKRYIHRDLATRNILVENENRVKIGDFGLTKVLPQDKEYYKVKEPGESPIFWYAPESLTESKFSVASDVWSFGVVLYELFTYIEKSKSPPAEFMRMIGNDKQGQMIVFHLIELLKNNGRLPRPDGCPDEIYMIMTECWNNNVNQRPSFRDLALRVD
SMILES,IC50 (JAK2) [nM],IC50 (JAK3) [nM],IC50 (JAK1) [nM]
"CN(C)C(=O)NCc1ccc(Nc2cc(NCc3cccc4ccsc34)c(C(N)=O)cn2)cc1 [Example 354, 4-(benzo[b]thiophen-7-ylmethylamino)-6-(4-((3,3-dimethylureido)methyl)phenylamino)nicotinamide]",10 to 100,1 to 10,100 to 1000
"CN(C)S(=O)(=O)NCc1ccc(Nc2cc(NCc3cccc4ccsc34)c(C(N)=O)cn2)cc1 [Example 355, 4-(benzo[b]thiophen-7-ylmethylamino)-6-(4-((N,N-dimethylsulfamoylamino)methyl)phenylamino)nicotinamide]",100 to 1000,1 to 10,100 to 1000
"CC(=O)N(C)c1ccc(Nc2cc(NC3(c4ccccc4)CC3)c(C(N)=O)cn2)cc1 [Example 361, 6-(4-(N-methylacetamido)phenylamino)-4-(1-phenylcyclopropylamino)nicotinamide]",> 1000,100 to 1000,> 1000
NC(=O)c1cnc(Nc2ccc(N3CCCCC3)cc2)cc1NC1(c2ccccc2)CC1 [Example 362],> 1000,10 to 100,> 1000
"CC(=O)N1CCN(c2cccc(Nc3cc(NC4(c5ccccc5)CC4)c(C(N)=O)cn3)c2)CC1 [Example 371, 6-(3-(4-acetylpiperazin-1-yl)phenylamino)-4-(1-phenylcyclopropylamino)nicotinamide]",100 to 1000,10 to 100,> 1000
"CC(=O)N1CCN(c2cccc(N(C(C)=O)c3cc(NC4(c5ccccc5)CC4)c(C(N)=O)cn3)c2)CC1 [Example 372, 6-(N-(3-(4-acetylpiperazin-1-yl)phenyl)acetamino)-4-(1-phenylcyclopropylamino)nicotinamide]",> 1000,> 1000,> 1000
"CCC(=O)N1CCN(c2ccc(Nc3cc(NC4(c5cccc(F)c5F)CC4)c(C(N)=O)cn3)cc2)CC1 [Example 374, 4-(1-(2,3-difluorophenyl)cyclopropylamino)-6-(4-(4-propionylpiperazin-1-yl)phenylamino)nicotinamide]",10 to 100,1 to 10,100 to 1000
"CCC(=O)N1CCC(c2ccc(Nc3cc(NC4(c5ccccc5)CC4)c(C(N)=O)cn3)cc2)CC1 [Example 375, 4-(1-phenylcyclopropylamino)-6-(4-(1-propionylpiperidin-4-yl)phenylamino)nicotinamide]",> 1000,10 to 100,> 1000
CC(=O)N1CCN(c2ccc(Nc3ncc(C(N)=O)c(NCc4cccc(F)c4)c3Cl)cc2)CC1 [Example 376],> 1000,100 to 1000,> 1000
N#CCOc1cccc(Nc2cc(NCc3ccccc3)c(C(N)=O)cn2)c1 [Example 383],100 to 1000,10 to 100,100 to 1000
N#CCc1cccc(Nc2cc(NCc3ccccc3)c(C(N)=O)cn2)c1 [Example 387],100 to 1000,1 to 10,100 to 1000
N#CCc1ccc(Nc2cc(NCc3ccccc3)c(C(N)=O)cn2)cc1 [Example 390],100 to 1000,10 to 100,100 to 1000
N#Cc1cccc(Nc2cc(NCc3ccccc3)c(C(N)=O)cn2)c1 [Example 391],> 1000,10 to 100,> 1000
N#Cc1ccc(Nc2cc(NCc3ccccc3)c(C(N)=O)cn2)cc1 [Example 392],> 1000,100 to 1000,> 1000
N#Cc1ccc(Nc2cc(NCc3ccccc3)c(C(N)=O)cn2)cc1C#N [Example 393],> 1000,> 1000,> 1000
NC(=O)c1cnc(Nc2ccc(N3CCN(c4ccccn4)CC3)cc2)cc1NCc1cccc2[nH]ccc12 [Example 402],10 to 100,1 to 10,10 to 100
"CS(=O)(=O)c1ccc(Nc2cc(NCc3cccc(-c4ccncc4)c3)c(C(N)=O)cn2)cc1 [Example 413, 6-(4-(methylsulfonyl)phenylamino)-4-(3-(pyridine-4-yl)benzylamino)nicotinamide]",> 1000,10 to 100,> 1000
"CN(C)C(=O)c1ccc(Nc2cc(NCc3cccc(-c4cccnc4)c3)c(C(N)=O)cn2)cc1 [Example 414, 6-(4-(dimethylcarbamoyl)phenylamino)-4-(3-(pyridine-3-yl)benzylamino)nicotinamide]",100 to 1000,1 to 10,100 to 1000

SMILES,IC50 (JAK2) [nM],IC50 (JAK3) [nM],IC50 (JAK1) [nM]
CS(=O)(=O)c1ccc(Nc2cc(NCc3cccc(-c4cccnc4)c3)c(C(N)=O)cn2)cc1 [Example 415],> 1000,10 to 100,> 1000
"CCC(=O)N1CCC(c2ccc(Nc3cc(NCc4cccc(-c5cccnc5)c4)c(C(N)=O)cn3)cc2)CC1 [Example 416, 6-(4-(1-propionylpiperidin-4-yl)phenylamino)-4-(3-(pyridine-3-yl)benzylamino)nicotinamide]",> 1000,1 to 10,> 1000
"CN(C)S(=O)(=O)Cc1ccc(Nc2cc(NCc3cccc(-c4ccncc4)c3)c(C(N)=O)cn2)cc1 [Example 417, 6-(4-((N,N-dimethylsulfamoyl)methyl)phenylamino)-4-(3-(pyridine-4-yl)benzylamino)nicotinamide]",100 to 1000,1 to 10,100 to 1000
"CS(=O)(=O)Cc1ccc(Nc2cc(NCc3cccc(-c4ccncc4)c3)c(C(N)=O)cn2)cc1 [Example 418, 6-(4-(methylsulfonylmethyl)phenylamino)-4-(3-(pyridine-4-yl)benzylamino)nicotinamide]",100 to 1000,1 to 10,100 to 1000
"CN(C)C(=O)C1CCN(c2ccc(Nc3cc(NCc4cccc(-c5ccncc5)c4)c(C(N)=O)cn3)cc2)CC1 [Example 419, 6-(4-(4-(dimethylcarbamoyl)piperidin-1-yl)phenylamino)-4-(3-(pyridine-4-yl)benzylamino)nicotinamide]",100 to 1000,1 to 10,> 1000
"CN(C)C(=O)c1ccc(Nc2cc(NCc3cccc(-c4ccccn4)c3)c(C(N)=O)cn2)cc1 [Example 421, 6-(4-(dimethylcarbamoyl)phenylamino)-4-(3-(pyridine-2-yl)benzylamino)nicotinamide]",100 to 1000,10 to 100,> 1000
"CN(C)C(=O)c1ccc(Nc2cc(NCc3cccc(-n4cccn4)c3)c(C(N)=O)cn2)cc1 [Example 422, 4-(3-(1H-pyrazol-1-yl)benzylamino)-6-(4-(dimethylcarbamoyl)phenylamino)nicotinamide]",100 to 1000,10 to 100,> 1000
"NC(=O)c1cnc(Nc2ccc(S(=O)(=O)N3CCC3)cc2)nc1NCc1ccccc1 [Example 434, 2-(4-(azetidin-1-ylsulfonyl)phenylamino)-4-(benzylamino)pyrimidine-5-carboxamide]",100 to 1000,10 to 100,> 1000
"NC(=O)c1cnc(Nc2ccc(F)c(C(=O)N3CCC3)c2)cc1NCc1ccccc1 [Example 439, 6-(3-(azetidine-1-carbonyl)-4-fluorophenylamino)-4-(benzylamino)nicotinamide]",100 to 1000,10 to 100,100 to 1000
"CN(C)C(=O)c1cc(Nc2cc(NCc3ccccc3)c(C(N)=O)cn2)ccc1N(C)C [Example 440, 4-(benzylamino)-6-(4-(dimethylamino)-3-(dimethylcarbamoyl)phenylamino)nicotinamide]",100 to 1000,10 to 100,100 to 1000
"COc1cc(Nc2cc(NC[C@H]3CCCN(C(C)=O)C3)c(C(N)=O)cn2)ccc1C(=O)N(C)C [Example 441, (R)-4-((1-acetylpiperidin-3-yl)methylamino)-6-(4-(dimethylcarbamoyl)-3-methoxyphenylamino)nicotinamide]",100 to 1000,10 to 100,> 1000
"CC(=O)N1CCC[C@H](CNc2cc(Nc3ccc(C(=O)N(C)C)c(Cl)c3)ncc2C(N)=O)C1 [Example 442, (R)-4-((1-acetylpiperidin-3-yl)methylamino)-6-(3-chloro-4-(dimethylcarbamoyl)phenylamino)nicotinamide]",100 to 1000,10 to 100,> 1000
"CC(=O)N1CCC[C@H](CNc2cc(Nc3ccc(F)c(C(=O)N4CCC4)c3)ncc2C(N)=O)C1 [Example 444, (R)-4-((1-acetylpiperidin-3-yl)methylamino)-6-(3-(azetidine-1-carbonyl)-4-fluorophenylamino)nicotinamide]",> 1000,100 to 1000,> 1000
"CC(=O)N1CCC[C@H](CNc2cc(Nc3ccc(C(=O)N(C)C)c(N(C)C)c3)ncc2C(N)=O)C1 [Example 445, (R)-4-((1-acetylpiperidin-3-yl)methylamino)-6-(3-(dimethylamino)-4-(dimethylcarbamoyl)phenylamino)nicotinamide]",100 to 1000,100 to 1000,> 1000
"Cc1cc(Nc2cc(NCc3cccc(F)c3F)c(C(N)=O)cn2)ccc1C(=O)N1CCC1 [Example 454, 6-(4-(azetidine-1-carbonyl)-3-methylphenylamino)-4-(2,3-difluorobenzylamino)nicotinamide]",10 to 100,< 1,100 to 1000
"Cc1cc(Nc2cc(NCc3cccc(F)c3F)c(C(N)=O)cn2)ccc1C(=O)N1CCOCC1 [Example 455, 4-(2,3-difluorobenzylamino)-6-(3-methyl-4-(morpholine-4-carbonyl)phenylamino)nicotinamide]",10 to 100,1 to 10,100 to 1000
"Cc1cc(Nc2cc(NCc3cccc(F)c3F)c(C(N)=O)cn2)ccc1C(=O)N1CCCC1 [Example 456, 4-(2,3-difluorobenzylamino)-6-(3-methyl-4-(pyrrolidine-1-carbonyl)phenylamino)nicotinamide]",10 to 100,< 1,100 to 1000
